Values joined by “and” are separate entries in the source; they are usually repeats but may differ in a detail not shown here. Equal entries are not always repeated. Toxic doses and inconclusive results are not listed.
System: BDF1 mice, P288 leukemia ip, survival T/C
Assay: NCI In Vivo Anticancer Drug Screen. Data for tumor model P288 Lymphocytic Leukemia (intraperitoneal) in B6D2F1 (BDF1) mice
Conditions: endpoint: survival time, mean or median, higher = longer survival
Protocol: The antitumor activity of compounds was measured in mice bearing transplantable tumors. Survival or tumor size were measured and the results are expressed as the measurement made in the treated group (T) divided by the measurement made in the vehicle treated control group (C). The tumor model used in this assay is P288 Lymphocytic Leukemia (intraperitoneal) in B6D2F1 (BDF1) mice

[1] = dose: 62.5 mg/kg/injection, schedule: Q01DX Z (sc), vehicle: steriod suspending solution
[2] = dose: 125.0 mg/kg/injection, schedule: Q01DX Z (sc), vehicle: steriod suspending solution
[3] = dose: 250.0 mg/kg/injection, schedule: Q01DX Z (sc), vehicle: steriod suspending solution
[4] = dose: 500.0 mg/kg/injection, schedule: Q01DX Z (sc), vehicle: steriod suspending solution
[5] = dose: 1000.0 mg/kg/injection, schedule: Q01DX Z (sc), vehicle: steriod suspending solution
[6] = dose: 62.5 mg/kg/injection, schedule: Q01DX Z (ip), vehicle: carboxymethylcellulose (CMC)
[7] = dose: 125.0 mg/kg/injection, schedule: Q01DX Z (ip), vehicle: carboxymethylcellulose (CMC)
[8] = dose: 250.0 mg/kg/injection, schedule: Q01DX Z (ip), vehicle: carboxymethylcellulose (CMC)
[9] = dose: 3.1 mg/kg/injection, schedule: Q01DX Z (ip), vehicle: carboxymethylcellulose (CMC)
[10] = dose: 12.5 mg/kg/injection, schedule: Q01DX Z (ip), vehicle: carboxymethylcellulose (CMC)
[11] = dose: 7.5 mg/kg/injection, schedule: Q01DX010 (ip), vehicle: saline
[12] = dose: 30.0 mg/kg/injection, schedule: Q01DX010 (ip), vehicle: saline
[13] = dose: 60.0 mg/kg/injection, schedule: Q01DX010 (ip), vehicle: saline

Structure (SMILES): C[C@]12CCC(=O)C[C@H]1CC[C@@H]1[C@@H]2CC[C@@]2(C)[C@H]1CC[C@]2(C)O
- T/C [1]: 97 % of control
- T/C [2]: 98 % of control
- T/C [3]: 109 % of control and 92 % of control
- T/C [4]: 104 % of control and 100 % of control
- T/C [5]: 101 % of control

Structure (SMILES): CCN(CCNc1ccc(C)c2sc3cc(Cl)ccc3c(=O)c12)CC(C)O (stereo not given)
- T/C (dose: 31.3 mg/kg/injection, schedule: Q01DX010 (ip), vehicle: saline): 112 % of control
- T/C (dose: 62.5 mg/kg/injection, schedule: Q01DX010 (ip), vehicle: saline): 94 % of control
- T/C (dose: 125.0 mg/kg/injection, schedule: Q01DX010 (ip), vehicle: saline): 105 % of control
- T/C (dose: 250.0 mg/kg/injection, schedule: Q01DX010 (ip), vehicle: saline): 118 % of control and 94 % of control

Structure (SMILES): OCC1OC(n2cnc3c(Cl)ncnc32)C(O)C1O (stereo not given)
- T/C [6]: 104 % of control
- T/C [7]: 101 % of control
- T/C [8]: 92 % of control
- T/C (dose: 500.0 mg/kg/injection, schedule: Q01DX Z (ip), vehicle: carboxymethylcellulose (CMC)): 106 % of control

Structure (SMILES): CSc1ncnc2c1ncn2C1OC(CO)C(O)C1O (stereo not given)
- T/C [9]: 101 % of control
- T/C (dose: 6.3 mg/kg/injection, schedule: Q01DX Z (ip), vehicle: carboxymethylcellulose (CMC)): 124 % of control
- T/C [10]: 118 % of control

Structure (SMILES): O=C(Nc1ccc(C2=NCCN2)cc1)c1ccc(C(=O)Nc2ccc(C3=NCCN3)cc2)c(Cl)c1
- T/C (dose: 2.0 mg/kg/injection, schedule: Q01DX010 (ip), vehicle: other): 108 % of control and 120 % of control
- T/C (dose: 7.5 mg/kg/injection, schedule: Q01DX Z (ip), vehicle: water): 107 % of control
- T/C (dose: 8.0 mg/kg/injection, schedule: Q01DX010 (ip), vehicle: other): 160 % of control and 183 % of control
- T/C (dose: 16.0 mg/kg/injection, schedule: Q01DX010 (ip), vehicle: other): 232 % of control and 262 % of control
- T/C (dose: 30.0 mg/kg/injection, schedule: Q01DX Z (ip), vehicle: water): 154 % of control
- T/C (dose: 32.0 mg/kg/injection, schedule: Q01DX010 (ip), vehicle: other): 120 % of control and 296 % of control

Structure (SMILES): CC[C@@H](c1ccc(O)cc1)[C@@H](CC)c1ccc(O)cc1
- T/C (dose: 31.0 mg/kg/injection, schedule: Q01DX Z (sc), vehicle: steriod suspending solution): 98 % of control
- T/C [1]: 98 % of control
- T/C [2]: 115 % of control and 97 % of control and 100 % of control
- T/C [3]: 93 % of control and 98 % of control
- T/C [4]: 107 % of control and 95 % of control
- T/C [5]: 93 % of control

Structure (SMILES): Nc1nc(N)c2nc(CNc3ccc(C(=O)NC(CCC(=O)O)C(=O)O)cc3)cnc2n1 (stereo not given)
- T/C (dose: 0.05 mg/kg/injection, schedule: Q01DX010 (ip), vehicle: other): 100 % of control
- T/C (dose: 0.1 mg/kg/injection, schedule: Q01DX010 (ip), vehicle: other): 116 % of control
- T/C (dose: 0.2 mg/kg/injection, schedule: Q01DX010 (ip), vehicle: other): 177 % of control
- T/C (dose: 0.4 mg/kg/injection, schedule: Q01DX010 (ip), vehicle: other): 194 % of control

Structure (SMILES): Clc1ncnc2nc[nH]c12
- T/C [11]: 88 % of control
- T/C [12]: 94 % of control
- T/C (dose: 31.25 mg/kg/injection, schedule: Q01DX Z (ip), vehicle: carboxymethylcellulose (CMC)): 86 % of control and 95 % of control
- T/C [6]: 101 % of control and 102 % of control and 105 % of control
- T/C [7]: 112 % of control and 114 % of control and 97 % of control
- T/C [8]: 106 % of control (2×) and 110 % of control

Structure (SMILES): CCN(CC)C(=S)S
- T/C (dose: 125.0 mg/kg/injection, schedule: Q01DX Z (ip), vehicle: other): 97 % of control
- T/C (dose: 250.0 mg/kg/injection, schedule: Q01DX Z (ip), vehicle: other): 112 % of control
- T/C (dose: 500.0 mg/kg/injection, schedule: Q01DX Z (ip), vehicle: other): 104 % of control
- T/C (dose: 1000.0 mg/kg/injection, schedule: Q01DX Z (ip), vehicle: other): 104 % of control

Structure (SMILES): N#CCSc1ncnc2nc[nH]c12
- T/C [10]: 97 % of control
- T/C (dose: 25.0 mg/kg/injection, schedule: Q01DX Z (ip), vehicle: carboxymethylcellulose (CMC)): 95 % of control
- T/C [12]: 94 % of control
- T/C (dose: 50.0 mg/kg/injection, schedule: Q01DX Z (ip), vehicle: carboxymethylcellulose (CMC)): 114 % of control and 95 % of control
- T/C [13]: 88 % of control
- T/C (dose: 120.0 mg/kg/injection, schedule: Q01DX010 (ip), vehicle: saline): 100 % of control

Structure (SMILES): CN(C)CC(=O)c1ccc(O)c(O)c1
- T/C (dose: 8.0 mg/kg/injection, schedule: Q01DX Z (ip), vehicle: saline): 94 % of control
- T/C (dose: 16.0 mg/kg/injection, schedule: Q01DX Z (ip), vehicle: saline): 105 % of control
- T/C (dose: 500.0 mg/kg/injection, schedule: Q01DX Z (ip), vehicle: saline): 152 % of control
- T/C (dose: 675.0 mg/kg/injection, schedule: Q01DX010 (ip), vehicle: saline): 150 % of control

Structure (SMILES): CN(C)c1nc(N(C)C)nc(N(C)C)n1
- T/C (dose: 75.0 mg/kg/injection, schedule: Q01DX010 (ip), vehicle: saline): 90 % of control
- T/C [7]: 97 % of control

Structure (SMILES): CCCNc1ncnc2[nH]ncc12
- T/C (dose: 0.31 mg/kg/injection, schedule: Q01DX Z (ip), vehicle: water): 94 % of control
- T/C (dose: 0.63 mg/kg/injection, schedule: Q01DX Z (ip), vehicle: water): 90 % of control
- T/C (dose: 2.5 mg/kg/injection, schedule: Q01DX Z (ip), vehicle: water): 108 % of control and 114 % of control
- T/C (dose: 5.0 mg/kg/injection, schedule: Q01DX Z (ip), vehicle: water): 112 % of control
- T/C (dose: 10.0 mg/kg/injection, schedule: Q01DX Z (ip), vehicle: water): 106 % of control and 91 % of control
- T/C (dose: 20.0 mg/kg/injection, schedule: Q01DX Z (ip), vehicle: water): 108 % of control
- T/C (dose: 40.0 mg/kg/injection, schedule: Q01DX Z (ip), vehicle: water): 103 % of control

Structure (SMILES): Cn1c(N)nc2nc[nH]c2c1=S
- T/C [9]: 90 % of control
- T/C (dose: 10.0 mg/kg/injection, schedule: Q01DX010 (ip), vehicle: saline): 100 % of control
- T/C (dose: 20.0 mg/kg/injection, schedule: Q01DX010 (ip), vehicle: saline): 100 % of control
- T/C (dose: 40.0 mg/kg/injection, schedule: Q01DX010 (ip), vehicle: saline): 100 % of control
- T/C (dose: 80.0 mg/kg/injection, schedule: Q01DX010 (ip), vehicle: saline): 106 % of control

Structure (SMILES): CN(C)[C@@H]1C(=O)C(C(N)=O)=C(O)[C@@]2(O)C(=O)C3=C(O)c4c(O)cccc4C[C@H]3C[C@@H]12
- T/C [11]: 94 % of control
- T/C (dose: 15.0 mg/kg/injection, schedule: Q01DX010 (ip), vehicle: saline): 105 % of control and 94 % of control
- T/C [12]: 122 % of control and 100 % of control
- T/C [13]: 94 % of control and 100 % of control

Structure (SMILES): O=c1[nH]c(=O)n(C2CC(O)C(CO)O2)cc1I (stereo not given)
- T/C (dose: 63.0 mg/kg/injection, schedule: Q01DX Z (ip), vehicle: carboxymethylcellulose (CMC)): 104 % of control
- T/C [8]: 124 % of control
- T/C (dose: 1000.0 mg/kg/injection, schedule: Q01DX010 (ip), vehicle: saline): 116 % of control

Structure (SMILES): COS(C)(=O)=O
- T/C (dose: 12.5 mg/kg/injection, schedule: Q01DX010 (ip), vehicle: saline): 100 % of control
- T/C (dose: 12.5 mg/kg/injection, schedule: Q01DX Z (ip), vehicle: water): 109 % of control
- T/C (dose: 25.0 mg/kg/injection, schedule: Q01DX010 (ip), vehicle: saline): 100 % of control
- T/C (dose: 25.0 mg/kg/injection, schedule: Q01DX Z (ip), vehicle: water): 103 % of control
- T/C (dose: 50.0 mg/kg/injection, schedule: Q01DX010 (ip), vehicle: saline): 87 % of control
- T/C (dose: 100.0 mg/kg/injection, schedule: Q01DX010 (ip), vehicle: saline): 106 % of control
- T/C (dose: 100.0 mg/kg/injection, schedule: Q01DX Z (ip), vehicle: water): 97 % of control
